Reference: patent US7736881B2, “Antibacterial and herbicidal compounds and system for screening the same” (University of Utah Research Foundation, priority 2000, dated 2010)
Entries after “also recorded” stand apart in the source; their conditions may differ.

Legend:
[1] = tested on: Strain JC7623 dxs::pCAT53-3 transformed with pLME10 (R. capsulatus dxsB in pET11-A); experiment: Screen for antimicrobial agent using strain JC7623 dxs::pCAT53-3 transformed with pLME10 (plate growth); format: cell-based, E. coli
[2] = tested on: Strain RMC25 electroporated with pLME10 (R. capsulatus dxsB in pET11-A); experiment: Screen for antimicrobial agent using strain RMC25 electroporated with pLME10 (plate growth); format: cell-based, S. typhimurium
[3] = LB/kan/ME/fosmidomycin, fosmidomycin ~4 μg/mL, ME 50 mg/L, after 1 day
[4] = after 2.5 days, fosmidomycin ~4 μg/mL, ME 50 mg/L

SMILES: O=CN(O)CCCP(=O)(O)O [fosmidomycin]
- growth on Plate F [1]: microcolonies
- growth on plate F compared with plate C (LB/kan/MVA/arabinose without fosmidomycin) [1]: equal
- growth on Plate E ([1]; LB/ka/IPTG/fosmidomycin, fosmidomycin ~4 μg/mL, IPTG 1 mM, after 2.5 days): no growth
- growth on Plate G [1, 3]: colonies
- growth on plate G compared with plate D (LB/kan/ME without fosmidomycin) [1, 4]: equal
- growth on Plate F [2]: colonies
- growth on plate F compared with plate C (LB/kan/MVA/arabinose without fosmidomycin) [2]: equal
- growth on Plate E ([2]; LB/kan/IPTG/fosmidomycin, fosmidomycin ~4 μg/mL, IPTG 1 mM, after 2.5 days): no growth; also recorded: growth is inhibited
- growth on Plate G [2, 3]: colonies
- growth on plate G compared with plate D (LB/kan/ME without fosmidomycin) [2, 4]: equal
